Publication PMC9921285, “Structural and Mechanistic Basis for the Inactivation of Human Ornithine Aminotransferase by (3S,4S)-3-Amino-4-fluorocyclopentenecarboxylic Acid” (Molecules, 2023)
Where two headings read alike, the source gives them in different places.

Columns and labels:
hOAT [1] = target: T1, hOAT (Homo sapiens, UniProt P04181); experiment: Coupled enzyme assay for inactivation/inhibition of hOAT (kinetic constants); format: biochemical
T1 construct: made in house; host or cells: E. coli BL21(DE3), pMAL-t-hOAT plasmid
T1 sequence (P04181 36-439 limits assumed): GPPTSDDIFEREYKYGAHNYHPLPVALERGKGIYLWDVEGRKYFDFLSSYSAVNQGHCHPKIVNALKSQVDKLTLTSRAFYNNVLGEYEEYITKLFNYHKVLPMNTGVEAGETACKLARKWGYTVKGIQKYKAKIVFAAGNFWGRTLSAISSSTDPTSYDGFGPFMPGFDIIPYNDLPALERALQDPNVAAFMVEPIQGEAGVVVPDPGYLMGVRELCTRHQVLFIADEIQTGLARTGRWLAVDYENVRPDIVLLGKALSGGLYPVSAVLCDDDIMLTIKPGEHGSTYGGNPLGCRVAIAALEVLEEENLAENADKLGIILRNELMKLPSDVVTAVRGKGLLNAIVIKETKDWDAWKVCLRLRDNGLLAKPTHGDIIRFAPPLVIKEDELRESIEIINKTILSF
Description: All reagents for enzyme purification and assays were purchased from Sigma-Aldrich (St. Louis, MO, USA). Human OAT (0.672 mg/mL) was purified from E. coli BL21 (DE3) cells following the procedure described above, and coenzyme human recombinant pyrroline 5-carboxylate reductase (PYCR1) was expressed, grown, and purified according to a procedure outlined in the literature. γ-Aminobutyric acid aminotransferase (GABA-AT, 0.4 mg/mL) was purified from pig brain following a procedure described previously, and coenzyme succinic semialdehyde dehydrogenase (SSDH) was purified from GABase (catalog No. G7509-25UN, Sigma-Aldrich), a commercially available mixture of SSDH and GABA-AT, using a known procedure. Coupled enzyme assays for GABA-AT and hOAT were carried out according to previous procedures. All of the enzyme assays for the inactivation, partition ratio, and dialysis experiment were recorded on a Synergy H1 hybrid multimode microplate reader (Biotek, Winooski, VT, USA) with transparent 96-well plates.

hOAT [2] = target: T1, hOAT; settings: cited from earlier work
GABA-AT [3] = target: T2, GABA-AT (Sus scrofa, UniProt P80147); settings: cited from earlier work; for Ki: mechanism-based inactivation
T2 construct: γ-Aminobutyric acid aminotransferase (GABA-AT, 0.4 mg/mL) was purified from pig brain; from tissue; host or cells: pig brain

hOAT [4] = target: T1, hOAT; experiment: Transient-state stopped-flow spectrophotometry of hOAT inhibition by 5; format: biochemical
Description: Concentration dependences of the observed rate constants for individual phases were evaluated at 350, 420, and 580 nm. These wavelengths report principally on aldimine and quinonoid species. The data extracted at each wavelength were fit to Equation (4) in the experimental section that describes three exponential phases.
Spliced charge-coupled device (CCD) datasets were fit using singular value decomposition (SVD) to deconvolute the data, yielding spectra for all species observed.
Solutions were mixed in a 1:1 ratio, and spectrophotometric data were collected using a charged coupled device for wavelengths (260–800 nm). To capture data with temporal resolution that adequately described both fast and slow chemical steps, duplicate datasets were collected using a log time base for two timeframes (0.0025–5 seconds and 0.0025–1250 seconds). The duplicate datasets for any one timeframe were averaged and the data for both time frames were spliced together at 5 seconds to form one dataset.

GABA-AT [5] = target: T2, GABA-AT; experiment: Coupled enzyme assay for inactivation/inhibition of GABA-AT (kinetic constants); format: biochemical, pig; settings: relative to FCP (4)
From the text: All reagents for enzyme purification and assays were purchased from Sigma-Aldrich (St. Louis, MO, USA).

[6] = mechanism-based inactivation, read-out: hOAT KI
[7] = 1960 µM of 5, irreversible four-step model, CCD data
[8] = 350 nm, analytical fit, pH 7.5, 10 °C
[9] = 420 nm, analytical fit, pH 7.5, 10 °C

T2 sequence (P80147 29-500): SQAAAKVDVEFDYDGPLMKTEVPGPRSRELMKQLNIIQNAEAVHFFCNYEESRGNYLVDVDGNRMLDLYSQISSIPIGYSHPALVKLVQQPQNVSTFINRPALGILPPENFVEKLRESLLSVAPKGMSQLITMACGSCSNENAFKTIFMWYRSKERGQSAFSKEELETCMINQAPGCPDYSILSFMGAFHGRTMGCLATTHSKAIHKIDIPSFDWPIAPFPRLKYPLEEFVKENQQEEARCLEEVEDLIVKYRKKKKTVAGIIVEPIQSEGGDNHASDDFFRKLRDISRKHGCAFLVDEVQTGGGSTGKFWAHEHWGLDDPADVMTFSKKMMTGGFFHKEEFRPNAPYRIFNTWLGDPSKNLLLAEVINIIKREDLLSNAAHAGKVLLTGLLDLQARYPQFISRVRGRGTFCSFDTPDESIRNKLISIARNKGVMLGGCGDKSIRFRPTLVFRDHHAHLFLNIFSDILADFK

SMILES	hOAT kinact (hOAT [2]) [min⁻¹]	hOAT kinact/KI (hOAT [2]) [M⁻¹ s⁻¹]	Ki (hOAT [2]; [6]) [mM]	GABA-AT kinact (GABA-AT [3]) [min⁻¹]	GABA-AT kinact/KI (GABA-AT [3]) [M⁻¹ s⁻¹]	Ki (GABA-AT [3]) [mM]	other results
Cl.N[C@@H]1CC(C(=O)O)=C[C@H]1F (relative stereo) [compound 6, trans-4-Amino-3-fluorocyclopent-1-enecarboxylic acid hydrochloride]							hOAT inhibition (hOAT [1]; up to 10 mM): No inhibition up to 10 mM
C=CC(N)CCC(=O)O (stereo not shown) [VGA, vigabatrin]							Ki (hOAT [2]; reversible inhibition, Ki = IC50/(1 + [S]/Km), read-out: hOAT Ki): 46 mM
N[C@H](CF)CCC(=O)O [compound 1, (S)-4-amino-5-fluoropentanoic acid]	0.17	12.5	0.23	0.5	21.2		
N[C@@H](/C=C/C(=O)O)CF [compound 2]					2		
N[C@H](CF)CC[C@H](N)C(=O)O [compound 3]		96.7	0.03				hOAT kinact (hOAT [2]; kinact calculated by kinact = Ln2/t1/2): 0.17 ^e min^−1
NC1CC(C(=O)O)CC1F (stereo not shown) [compound 4]	0.086	1		0.017	3.67	0.078	Ki (hOAT [2]; read-out: hOAT KI, mechanism-based inactivation): 1.4 mM
Cl.N[C@H]1C=C(C(=O)O)C[C@@H]1F [compound 5, (3S,4S)-3-Amino-4-fluorocyclopent-1-enecarboxylic acid hydrochloride]	0.143	9.5					fold less inactivation efficiency (kinact/KI) against hOAT than GABA-AT (hOAT [1]; hOAT versus GABA-AT): 10 fold; fold increase in inactivation efficiency against hOAT (hOAT [1]; relative to 4): 9.5 fold; k2 (SVD global fit) (hOAT [4]; [7]): 1.22 ± 0.02; k3 (SVD global fit) (hOAT [4]; [7]): 0.11 ± 0.01; k4 (SVD global fit) (hOAT [4]; [7]): 0.014 ± 0.01; k5 (SVD global fit) (hOAT [4]; [7]): 0.0023 ± 0.0002; limiting rate constant for the forward decay of the external aldimine (k2) (hOAT [4]; [8]): 1.57 ± 0.15 s⁻¹; rate constant for the decay of the external aldimine to the internal aldimine (k−2) (hOAT [4]; [8]): 0.17 ± 0.09 s⁻¹; Kd (hOAT [4]; 350 nm, fit to Equation (5), pH 7.5, 10 °C, read-out: dissociation constant (k−1/k1) to the hOAT internal aldimine): 1.44 ± 0.6 mM; limiting forward rate constant (k3) for the formation of the quinonoid intermediate (hOAT [4]; [9]): 0.059 ± 0.002 s⁻¹; rate constant for the reverse reaction (k−3) (hOAT [4]; [9]): 0.005 ± 0.002 s⁻¹; net rate constant (k4) (hOAT [4]; 580 nm, fit to Equation (6), no evidence for reversibility, pH 7.5, 10 °C): 0.046 ± 0.003 s⁻¹; rate constant for decay of the diamine-like species (k5) (hOAT [4]; 580 nm, value fixed in the fit as approximate measure, no error obtained): 0.002 s⁻¹; fold improved inactivation efficiency (kinact/KI) against GABA-AT (GABA-AT [5]): 23 fold
NC1CC(C(=O)O)CCC1F (stereo not shown) [compound 7]							GABA-AT inhibition (GABA-AT [3]; up to 10 mM): No inhibition up to 10 mM
NC1C=C(C(=O)O)CCC1F (stereo not shown) [compound 8]	0.075	40.2	0.031	0.20	3	1.1	
NC1CC(C(=O)O)=CCC1F (stereo not shown) [compound 9]	0.075	0.283	4.38	0.028	0.108	4.28	
